Results from BigSolDB 2.1.

SMILES: CCCc1nc2c(C)cc(-c3nc4ccccc4n3C)cc2n1Cc1ccc(-c2ccccc2C(=O)O)cc1
- solubility (mole fraction) (in acetone, 278.55 K): 4.42e-05
- solubility (mole fraction) (in acetone, 287.45 K): 5.71e-05
- solubility (mole fraction) (in acetone, 294.55 K): 7.76e-05
- solubility (mole fraction) (in acetone, 303.85 K): 9.45e-05
- solubility (mole fraction) (in acetone, 308.75 K): 0.000112
- solubility (mole fraction) (in acetone, 316.25 K): 0.000141
- solubility (mole fraction) (in acetone, 325.75 K): 0.000193
- solubility (mole fraction) (in benzene, 278.55 K): 6.95e-05
- solubility (mole fraction) (in benzene, 288.45 K): 0.000111
- solubility (mole fraction) (in benzene, 299.85 K): 0.000163
- solubility (mole fraction) (in benzene, 307.25 K): 0.000236
- solubility (mole fraction) (in benzene, 316.15 K): 0.000289
- solubility (mole fraction) (in benzene, 324.35 K): 0.000361
- solubility (mole fraction) (in benzene, 333.35 K): 0.000488
- solubility (mole fraction) (in chloroform, 278.75 K): 0.00533
- solubility (mole fraction) (in chloroform, 289.45 K): 0.00624
- solubility (mole fraction) (in chloroform, 296.95 K): 0.00701
- solubility (mole fraction) (in chloroform, 298.15 K): 0.00725
- solubility (mole fraction) (in chloroform, 303.95 K): 0.00747
- solubility (mole fraction) (in chloroform, 308.35 K): 0.00771
- solubility (mole fraction) (in chloroform, 313.15 K): 0.00799
- solubility (mole fraction) (in dichloromethane, 278.35 K): 0.0015
- solubility (mole fraction) (in dichloromethane, 286.55 K): 0.00177
- solubility (mole fraction) (in dichloromethane, 293.95 K): 0.00205
- solubility (mole fraction) (in dichloromethane, 298.05 K): 0.00216
- solubility (mole fraction) (in dichloromethane, 305.25 K): 0.00246
- solubility (mole fraction) (in dichloromethane, 308.35 K): 0.00261
- solubility (mole fraction) (in dichloromethane, 311.75 K): 0.00272
- solubility (mole fraction) (in ethanol, 277.85 K): 3.06e-05
- solubility (mole fraction) (in ethanol, 288.45 K): 4.57e-05
- solubility (mole fraction) (in ethanol, 298.45 K): 6.33e-05
- solubility (mole fraction) (in ethanol, 308.35 K): 9e-05
- solubility (mole fraction) (in ethanol, 313.45 K): 0.000117
- solubility (mole fraction) (in ethanol, 329.75 K): 0.000219
- solubility (mole fraction) (in ethanol, 333.65 K): 0.000255
- solubility (mole fraction) (in ethyl acetate, 283.65 K): 2.47e-05
- solubility (mole fraction) (in ethyl acetate, 293.35 K): 4.17e-05
- solubility (mole fraction) (in ethyl acetate, 303.65 K): 5.9e-05
- solubility (mole fraction) (in ethyl acetate, 305.35 K): 6.26e-05
- solubility (mole fraction) (in ethyl acetate, 317.95 K): 8.83e-05
- solubility (mole fraction) (in ethyl acetate, 329.45 K): 0.000123
- solubility (mole fraction) (in ethyl acetate, 333.65 K): 0.000148
- solubility (mole fraction) (in isopropanol, 288.45 K): 1.55e-05
- solubility (mole fraction) (in isopropanol, 298.05 K): 2.77e-05
- solubility (mole fraction) (in isopropanol, 309.55 K): 4.1e-05
- solubility (mole fraction) (in isopropanol, 316.55 K): 5.62e-05
- solubility (mole fraction) (in isopropanol, 321.55 K): 7.41e-05
- solubility (mole fraction) (in isopropanol, 329.55 K): 0.000106
- solubility (mole fraction) (in isopropanol, 338.35 K): 0.000157
- solubility (mole fraction) (in methanol, 278.45 K): 6.03e-05
- solubility (mole fraction) (in methanol, 288.55 K): 8.9e-05
- solubility (mole fraction) (in methanol, 299.85 K): 0.000132
- solubility (mole fraction) (in methanol, 307.35 K): 0.000153
- solubility (mole fraction) (in methanol, 313.25 K): 0.000186
- solubility (mole fraction) (in methanol, 324.85 K): 0.000271
- solubility (mole fraction) (in methanol, 330.05 K): 0.000315
- solubility (mole fraction) (in toluene, 278.65 K): 3.55e-05
- solubility (mole fraction) (in toluene, 288.45 K): 6.08e-05
- solubility (mole fraction) (in toluene, 300.05 K): 8.4e-05
- solubility (mole fraction) (in toluene, 306.35 K): 0.000125
- solubility (mole fraction) (in toluene, 316.75 K): 0.000169
- solubility (mole fraction) (in toluene, 325.85 K): 0.000225
- solubility (mole fraction) (in toluene, 334.55 K): 0.000307
